The experiment has as its system D54 ERlucT glioma cells, NLG luciferase reporter, 24 h. In words: N-linked glycosylation inhibitors, luciferase reporter cells, dose response, cell-based, D54 ERlucT glioma, dry powder, set 5 (AID 652059). Background: Reporter assays use an easily measured gene product as a stand-in for the process of interest.

On to `CC(=O)N[C@H]1[C@@H](O[C@@H]2OC(C[C@@H](O)C3O[C@@H](n4ccc(=O)[nH]c4=O)[C@H](O)[C@@H]3O)[C@H](O)[C@H](O)[C@H]2NC(=O)/C=C/CCCCCCCCCCC(C)C)O[C@H](CO)[C@@H](O)[C@@H]1O` (stereo partly specified), for which the AC40 was 520 nM.

(Values after PubChem BioAssay AID652059 (Broad Institute, 2013).)
